Data from PMC6615261, “Repurposing Azithromycin and Rifampicin Against Gram-Negative Pathogens by Combination With Peptidomimetics” (Frontiers in Cellular and Infection Microbiology, 2019).
Where two headings read alike, the source gives them in different places.

Tests used:
K. pneumoniae ST258 [1] = assay: MIC by broth microdilution; format: cell-based, Klebsiella pneumoniae; conditions: for Selectivity Index (SI) K. pneumoniae ST258: average of EC50 (HepG2, NIH 3T3) divided by MIC; for MIC K. pneumoniae ST258: peptidomimetic alone
Experimental: (§1) Minimal inhibitory concentrations (MICs) of peptidomimetics, antibiotics and their combinations were determined by broth microdilution according to the Clinical Laboratory Standards Institute performance standards (Clinical and Laboratory Standards Institute, [2013]). […] Since rifampicin and azithromycin mainly are used to treat infections with Gram-positive pathogens only CLSI clinical breakpoints were available for such bacteria. […] Potentiation of additional antibiotics by peptidomimetics was determined by using commercial 96-well plates containing varied concentrations of standard antibiotics (COMPAN1F; Trek Diagnostic Systems Inc.). The peptidomimetics were added immediately prior to inoculation with pathogen, and then MICs were determined as above. The MICs of peptidomimetic/antibiotic combinations were determined according to the method above, and the concentration ratios were selected based upon checkerboard results with 2:1 and 1:4 ratio of peptidomimetic with rifampicin or azithromycin, respectively. Minimal bactericidal concentrations (MBCs) were determined by using growth-curve assay plates. MIC plates were prepared as above, and then the plates were incubated at 37°C with continuous shaking. Growth was recorded at 10 min intervals as optical density (OD) at 600 nm during 24 h. At 24 h, for wells without growth, a sample was diluted 10-fold in sterile saline (0.9% sodium chloride) and plated onto MHA, following CLSI guidelines (Clinical and Laboratory Standards Institute, [1999]).

[2] = MTS/PMS cell viability assay; format: cell-based, mouse; conditions: mouse, NIH 3T3 fibroblasts, 1 h exposure, read-out: Cytotoxicity NIH 3T3 EC50 ± SD
Experimental: (§2) NIH 3T3 and HepG2 cells (both from ATCC, Manassas, VA, USA) were cultured in flat-bottomed 96-well MicroWell™ plates (NUNC, Roskilde, Denmark) at seeding densities of ~23,000 and ~22,000 cells/well, respectively, and then cultured for 22–24 h under standard culturing conditions (37°C, 5% CO2, humidified air) to reach 80–90% confluence. NIH 3T3 were cultured in Dulbecco's modified Eagle's medium (DMEM) supplemented with 10% (v/v) newborn-calf serum (NCS) (Gibco, Paisly, UK), while HepG2 were cultured in Eagle's minimum essential medium (EMEM) supplemented with 10% (v/v) fetal bovine serum (FBS, Gibco, Paisly, UK), sodium pyruvate (1 mM), and non-essential amino acids (1%, v/v). Both culturing media were further supplemented with penicillin (100 U/mL), streptomycin (100 μg/mL), and L-glutamine (2 mM).
(§3) Effect on cell viability was determined in NIH 3T3 fibroblasts and HepG2 hepatocytes by using the MTS/PMS assay measuring metabolic activity. Briefly, the adhered cells were washed with 37°C Hanks' balanced salt solution (HBSS from Sigma-Aldrich, St. Louis, MO, USA), containing 10 mM HEPES (AppliChem, Darmstadt, Germany), and adjusted to pH 7.4, and were then exposed for 1 h to 100 μL of test compound(s) dissolved in the appropriate culturing medium without serum for each cell line. After exposure the cells were washed with HBSS containing 10 mM HEPES (pH 7.4) and 100 μL of an MTS/PMS solution, consisting of 240 μg/mL MTS (Promega, Madison, WI, USA) and 2.4 μg/mL PMS (SigmaAldrich, Buchs, Switzerland) in HBSS, was added to the cells, which then were incubated for 1 h at 37°C with horizontal shaking under light protection. Absorbance was measured at 492 nm by using a POLARstar OPTIMA plate reader (BMG Labtech, Offenburg, Germany). The relative viability was calculated according to Equation (1) with absorbance values obtained after incubation of cells with test compound; incubation with SDS (0.2%, w/v in medium) defined 100% cell death (Abspos), while the absorbance of cells incubated with medium defined 0% cell death (Absneg).
(§4) (1) Relative viability(%)=(Abssample-Abspos)/(Absneg-Abspos)×100%
(§5) EC50 values were calculated by using GraphPad Prism 7 (GraphPad Software, La Jolla, CA, USA) via fitting of the relative cell viability to the concentration of the test compound by using Equation (2):
(§6) (2) Relative viability(%)= Top-Bottom/1+10^(LogIC50-Log[peptidomimetic]) ×Hill slope
(§7) With top and bottom representing the mean highest and lowest observed values, respectively. The Hill slope represents a factor for the steepness of the linear part of the curve. In order to prevent erroneous calculation, the top and bottom values were constrained to 100 and 0%, respectively. Data were collected from technical triplicates. The selectivity index was calculated as the average effect on cell viability (EC50 values for HepG2 and NIH 3T3 cells) divided by the MIC.

MDR E. coli ST131 = assay: Screening of peptidomimetic-antibiotic combinations (growth / growth inhibition); format: cell-based, Escherichia coli; set-up: key to Growth in combination with RIF / Growth in combination with AZM: Growth (+); growth inhibition (–); conditions: for Growth in combination with AZM: peptidomimetic 0.5 μM + azithromycin 1 μg/mL; for Growth in combination with RIF: peptidomimetic 0.5 μM + rifampicin 0.5 μg/mL
K. pneumoniae ST258 [3] = conditions: for Antibiotic MIC in combination (AZM): MIC of azithromycin combined with the labelled peptidomimetic; for Antibiotic MIC in combination (RIF): MIC of rifampicin combined with the labelled peptidomimetic; for Peptidomimetic MIC alone: checkerboard
How it was run: (§8)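 Two-dimensional checkerboard broth microdilution in MHB II, with twofold dilutions of peptidomimetic and antibiotic on crossed axes and 18–20 h incubation per CLSI. FICI = MICA(A+B)/MICA(alone) + MICB(A+B)/MICB(alone); ≤0.5 is interpreted as synergy.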

E. coli ST131 [4] = conditions: for Antibiotic MIC in combination (AZM): MIC of azithromycin combined with the labelled peptidomimetic; for Antibiotic MIC in combination (RIF): MIC of rifampicin combined with the labelled peptidomimetic; for Peptidomimetic MIC alone: checkerboard
How it was run: as §8

P. aeruginosa ATCC 27853 [5] = conditions: for Antibiotic MIC in combination (AZM) / Antibiotic MIC in combination (RIF) / Peptidomimetic MIC alone / Peptidomimetic MIC in combination: P. aeruginosa ATCC 27853; for Antibiotic MIC in combination (AZM): MIC of azithromycin combined with the labelled peptidomimetic; for Antibiotic MIC in combination (RIF): MIC of rifampicin combined with the labelled peptidomimetic; for Peptidomimetic MIC alone: checkerboard; for Reduction of the MIC of azithromycin: P. aeruginosa, sub-MIC concentrations of peptidomimetic
How it was run: as §8

K. pneumoniae ST258 [6] = assay: Screening of peptidomimetic-antibiotic combinations (growth / growth inhibition); format: cell-based, Klebsiella pneumoniae; set-up: key to Growth in combination with RIF / Growth in combination with AZM: Growth (+); growth inhibition (–); conditions: for Growth in combination with AZM: peptidomimetic 0.5 μM + azithromycin 1 μg/mL; for Growth in combination with RIF: peptidomimetic 0.5 μM + rifampicin 0.5 μg/mL
E. coli ST131 [7] = assay: MIC by broth microdilution; format: cell-based, Escherichia coli; conditions: for Selectivity Index (SI) E. coli ST131: average of EC50 (HepG2, NIH 3T3) divided by MIC; for MIC E. coli ST131: peptidomimetic alone
Experimental: as §1

[8] = test system: pro-inflammatory effect of LPS; set-up: method as in Skovbakke et al., 2015; conditions: at 1 μM; ref Skovbakke et al., 2015; cited from earlier work
[9] = MTS/PMS cell viability assay; format: cell-based; conditions: human, HepG2 hepatocytes, 1 h exposure, read-out: Cytotoxicity HepG2 EC50 ± SD
Experimental: as §2, §3, §4, §5, §6, §7

P. aeruginosa ATCC 27853 [10] = assay: MIC by broth microdilution; format: cell-based, Pseudomonas aeruginosa; conditions: for Selectivity Index (SI) P. aeruginosa ATCC 27853: average of EC50 (HepG2, NIH 3T3) divided by MIC; for MIC P. aeruginosa ATCC 27853: peptidomimetic alone
Experimental: as §1

NIH 3T3 cells = assay: MTS/PMS cell viability assay; format: cell-based, mouse; conditions: 1 h exposure, read-out: Cytotoxicity NIH 3T3 EC50 ± SD
Experimental: as §2, §3, §4, §5, §6, §7

NIH 3T3 and HepG2 cells = assay: Effect on viability of mammalian cells (both cell lines); format: cell-based, mouse and human
Experimental: as §2, §3, §4, §5, §6
With top and bottom representing the mean highest and lowest observed values, respectively. The Hill slope represents a factor for the steepness of the linear part of the curve. […] The selectivity index was calculated as the average effect on cell viability (EC50 values for HepG2 and NIH 3T3 cells) divided by the MIC.

SMILES	Selectivity Index (SI) K. pneumoniae ST258 (K. pneumoniae ST258 [1])	MIC K. pneumoniae ST258 (K. pneumoniae ST258 [1])	EC50 at 1 h [2]	Growth in combination with AZM (MDR E. coli ST131)	Growth in combination with RIF (MDR E. coli ST131)	Antibiotic MIC in combination (AZM) (K. pneumoniae ST258 [3])	Antibiotic MIC in combination (RIF) (K. pneumoniae ST258 [3])	Peptidomimetic MIC alone (K. pneumoniae ST258 [3])	Antibiotic MIC in combination (AZM) (E. coli ST131 [4])	Antibiotic MIC in combination (RIF) (E. coli ST131 [4])	Peptidomimetic MIC alone (E. coli ST131 [4])	Peptidomimetic MIC in combination (E. coli ST131 [4]; combined with AZM)	Peptidomimetic MIC in combination (E. coli ST131 [4]; combined with RIF)	Antibiotic MIC in combination (AZM) (P. aeruginosa ATCC 27853 [5])	Antibiotic MIC in combination (RIF) (P. aeruginosa ATCC 27853 [5])	Peptidomimetic MIC alone (P. aeruginosa ATCC 27853 [5])	Peptidomimetic MIC in combination (P. aeruginosa ATCC 27853 [5]; combined with AZM)	Peptidomimetic MIC in combination (P. aeruginosa ATCC 27853 [5]; combined with RIF)	Reduction of the MIC of azithromycin (P. aeruginosa ATCC 27853 [5])	Growth in combination with AZM (K. pneumoniae ST258 [6])	also measured
CC(=O)N[C@@H](CCCCN)C(=O)N(CCC(=O)N[C@@H](CCCCN)C(=O)N(CCC(=O)N[C@@H](CCCCN)C(=O)N(CCC(=O)N[C@@H](CCCCN)C(=O)N(CCC(=O)N[C@@H](CCCCN)C(=O)N(CCC(=O)N[C@@H](CCCCN)C(=O)N(CCC(N)=O)Cc1ccccc1)Cc1ccccc1)Cc1ccccc1)Cc1ccccc1)Cc1ccccc1)Cc1ccccc1 [Peptidomimetic 14, Ac-(Lys-βNPhe)6-NH2]	(4)	64 µM	323 µM	–	–	4 µg/mL	1 µg/mL	64 µM	1 µg/mL	0.25 µg/mL	4 µM	0.25 µM	0.25 µM	1 µg/mL	1 µg/mL	16 µM	4 µM	4 µM	32- to 512 fold	+	Growth in combination with RIF (K. pneumoniae ST258 [6]): +; Selectivity Index (SI) E. coli ST131 (E. coli ST131 [7]): (70); MIC E. coli ST131 (E. coli ST131 [7]): 4 µM; Block of the pro-inflammatory effect of LPS [8]: block the pro-inflammatory effect of LPS; EC50 at 1 h [9]: 234 µM; Selectivity Index (SI) P. aeruginosa ATCC 27853 (P. aeruginosa ATCC 27853 [10]): (17); MIC P. aeruginosa ATCC 27853 (P. aeruginosa ATCC 27853 [10]): 16 µM
COCCOCCOCC(=O)N[C@@H](CCCCN)C(=O)N(CCC(=O)N[C@@H](CCCCNC(=N)N)C(=O)N(CCC(=O)N[C@@H](CCCCN)C(=O)N(CCC(=O)N[C@@H](CCCCNC(=N)N)C(=O)N(CCC(=O)N[C@@H](CCCCN)C(=O)N(CCC(=O)N[C@@H](CCCCNC(=N)N)C(=O)N(CCC(N)=O)[C@@H](C)c1ccccc1)[C@@H](C)c1ccccc1)[C@@H](C)c1ccccc1)[C@@H](C)c1ccccc1)[C@@H](C)c1ccccc1)[C@@H](C)c1ccccc1 [Peptidomimetic 28, TODA-(Lys-βNspe-hArg-βNspe)3-NH2]	(10)	16 µM	~218 µM	–	–	4 µg/mL	0.5 µg/mL	16 µM	0.5 µg/mL	0.13 µg/mL	2 µM	0.5 µM	0.5 µM	0.5 µg/mL	0.06 µg/mL	16 µM	2 µM	4 µM	32- to 512 fold	+	EC50 (NIH 3T3 cells): 218 ± 18.1 µM; Peptidomimetic MIC in combination (K. pneumoniae ST258 [3]; combined with AZM): 2 µM; Peptidomimetic MIC in combination (K. pneumoniae ST258 [3]; combined with RIF): 1 µM; EC50 (NIH 3T3 and HepG2 cells): > 100 µM; Growth in combination with RIF (K. pneumoniae ST258 [6]): +; Selectivity Index (SI) E. coli ST131 (E. coli ST131 [7]): (84); MIC E. coli ST131 (E. coli ST131 [7]): 2 µM; EC50 at 1 h [9]: 118 ± 2.05 µM; Selectivity Index (SI) P. aeruginosa ATCC 27853 (P. aeruginosa ATCC 27853 [10]): (10); MIC P. aeruginosa ATCC 27853 (P. aeruginosa ATCC 27853 [10]): 16 µM
